In the NIST ThermoML archive (doi:10.1016/j.jct.2010.05.009):

Columns and labels:
[1] = xn = mol fraction of the nth substance listed; details: 101 kPa, Liquid; for viscosity: Capillary tube (Ostwald / Ubbelohde) method; for mass density: Vibrating tube method
[2] = refractive index (Na D-line) (dimensionless); xn = mol fraction of the nth substance listed; details: 101 kPa, Liquid, Standard Abbe refractometry

CCCN [propan-1-amine] + CCC(C)(C)O
Details	mass density, 288.15 K [kg/m3]	mass density, 298.15 K [kg/m3]	mass density, 308.15 K [kg/m3]	refractive index, 288.15 K	refractive index, 298.15 K	refractive index, 308.15 K	viscosity, 288.15 K [mPa·s]	viscosity, 298.15 K [mPa·s]	viscosity, 308.15 K [mPa·s]
[1], x2 = 0	721.57	711.08	700.4	–	–	–	0.3851	0.3585	0.3222
[1], x2 = 0.0733	731.65	721.43	710.97	–	–	–	0.4625	0.4161	0.3822
[1], x2 = 0.1528	742.12	732.03	721.79	–	–	–	0.5521	0.4813	0.4437
[1], x2 = 0.2327	752	742.1	732.07	–	–	–	0.6938	0.5258	0.501
[1], x2 = 0.3155	761.54	751.82	741.93	–	–	–	0.8513	0.6157	0.5725
[1], x2 = 0.398	770.38	760.84	751.09	–	–	–	1.041	0.7142	0.6756
[1], x2 = 0.4888	779.41	770.02	760.39	–	–	–	1.354	0.8835	0.8338
[1], x2 = 0.5804	787.76	778.45	768.97	–	–	–	1.827	1.129	1.03
[1], x2 = 0.6697	795.11	785.88	776.64	–	–	–	2.39	1.468	1.283
[1], x2 = 0.7769	802.69	793.82	784.6	–	–	–	3.288	1.974	1.664
[1], x2 = 0.8741	808.3	799.58	790.43	–	–	–	4.258	2.565	2.03
[1], x2 = 0.9498	811.88	803.1	793.93	–	–	–	5.17	3.068	2.304
[2], x2 = 0	–	–	–	1.3899	1.3844	1.3784	–	–	–
[2], x2 = 0.0733	–	–	–	1.392	1.3868	1.3809	–	–	–
[2], x2 = 0.1528	–	–	–	1.3944	1.3893	1.3835	–	–	–
[2], x2 = 0.2327	–	–	–	1.3968	1.3917	1.386	–	–	–
[2], x2 = 0.3155	–	–	–	1.3989	1.394	1.3884	–	–	–
[2], x2 = 0.398	–	–	–	1.4009	1.3961	1.3906	–	–	–
[2], x2 = 0.4888	–	–	–	1.4028	1.398	1.3926	–	–	–
[2], x2 = 0.5804	–	–	–	1.4043	1.3996	1.3944	–	–	–
[2], x2 = 0.6697	–	–	–	1.4053	1.4005	1.3954	–	–	–
[2], x2 = 0.7769	–	–	–	1.4058	1.4012	1.3962	–	–	–
[2], x2 = 0.8741	–	–	–	1.406	1.4013	1.3964	–	–	–
[2], x2 = 0.9498	–	–	–	1.4061	1.4014	1.3966	–	–	–
